# Results filed as inconclusive are left out. Calls of active or inactive are those of the source.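 How the source made its calls: active means Compounds that reduce signal, with fitted half-maximal dose at or under twice the top valid tested dose; inconclusive means Poor fit, or flat curve losing 30 to 70% of signal; inactive means Potency past limit, flat within 30%, or opposite direction.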
# Experiment: HEK293T cell cytotoxicity, dose response, cytotoxicity control, ATP luminescence, cherry-pick samples (AID 687005)
# Details: HEK293T viability, ATP luminescence (CellTiter-Glo), 48 h; at 23.5 µM (top of the series)
row,SMILES,"activity change, negative = cytotoxicity"
1,CC(C)NC(=O)Nc1cccc2c1O[C@H](CN(C)C)[C@H](C)CN([C@H](C)CO)C2=O,7.48% (inactive)
2,C/C=C/c1ccc([C@H]2[C@@H](C#N)N(S(=O)(=O)c3cccc(F)c3)[C@H]2CO)cc1,7.73% (inactive)
3,CN1c2ccc(Br)cc2[C@@H]2[C@@H](CCN2C(=O)Cc2cccnc2)[C@@H]1CO,-13.9% (inactive)
4,C[C@H](CO)N1C[C@H](C)[C@H](CN(C)CC2CCCCC2)Oc2ccc(NC(=O)Nc3ccc4c(c3)OCO4)cc2C1=O,-3.46% (inactive)
5,CCC(=O)N1[C@H](CO)[C@@H](c2ccc(-c3cccnc3)cc2)[C@@H]1CN(C)C(C)=O,3.73% (inactive)
6,Cc1noc(C)c1NC(=O)N(C)C[C@H]1OCCCC[C@H](C)Oc2ccc(NC(=O)NC(C)C)cc2C(=O)N([C@@H](C)CO)C[C@@H]1C,68% (inactive)
7,COc1ccccc1-c1ccc([C@H]2[C@@H](C#N)N(C(=O)C3CC3)[C@@H]2CO)cc1,27.7% (inactive)
8,C[C@@H]1CN([C@@H](C)CO)C(=O)CCCn2nncc2CO[C@H]1CN(C)C(=O)Oc1cccc2ccccc12,17.9% (inactive)

# Same assay, conditions: HEK293T viability, ATP luminescence (CellTiter-Glo), 48 h; at 26 µM (top of the series)
row,SMILES,"activity change, negative = cytotoxicity"
1,CCNC(=O)COc1cccc(C(=O)NCc2ccccc2)c1,-54% (inactive)
2,Cc1cccc(-c2ccc([C@H]3[C@H](CO)N4CCCCN(C(=O)c5ccc6c(c5)OCO6)C[C@@H]34)cc2)c1,70.3% (inactive)
3,O=C(C[C@H]1C[C@@H]2c3cc(NC(=O)c4cccnc4)ccc3O[C@@H]2[C@@H](CO)O1)NCCc1ccccc1,-44.8% (inactive)
4,CCC(=O)N(C)C[C@@H]1Oc2cc(C#CC(C)(C)O)ccc2S(=O)(=O)N([C@H](C)CO)C[C@H]1C,-15.7% (inactive)
5,Cc1noc(C)c1S(=O)(=O)N(C)C[C@@H]1OCCCC[C@@H](C)Oc2ccc(NC(=O)CCCCCC(=O)Nc3ccccc3N)cc2C(=O)N([C@H](C)CO)C[C@@H]1C,1.87% (inactive)
6,C[C@H]1CN([C@@H](C)CO)C(=O)c2cc(-c3ccccc3)cnc2O[C@@H]1CN(C)C(=O)c1ccccn1,19% (inactive)
7,CCC(=O)N[C@H]1C=C[C@H](CC(=O)NCC2CCCCC2)O[C@@H]1CO,35.4% (inactive)
8,CCC(=O)N1[C@@H]2c3cccc(=O)n3C[C@H]1[C@H](CO)[C@H]2C(=O)NCc1ccccc1,-16.7% (inactive)
9,O=C(c1c(Cl)cccc1Cl)N1CCN(c2ccccn2)CC1,-3.99% (inactive)
10,CCC(=O)N1CCC1(C)C(=O)Nc1ccc(C)c(C)c1 (stereo not given),-11.7% (inactive)
11,CO[C@H]1CN(C)C(=O)c2cc(NS(=O)(=O)CC(F)(F)F)ccc2OC[C@H](C)N(Cc2cccnc2)C[C@@H]1C,20.5% (inactive)
12,O=C([C@@H]1[C@@H](CO)[C@@H]2Cn3c(cccc3=O)[C@H]1N2Cc1cccc(Cl)c1)N1CCOCC1,-9.53% (inactive)
13,COc1ccc(OC(C)C(=O)NC(C)c2ccccc2)cc1 (stereo not given),-8.71% (inactive)
14,C[C@@H]1CN([C@H](C)CO)S(=O)(=O)c2ccc(C#C[C@@H](C)O)cc2O[C@@H]1CN(C)Cc1ccncc1,-20.8% (inactive)
15,CC(C)CC#Cc1ccc2c(c1)O[C@@H](CN(C)C(=O)C1CCC1)[C@@H](C)CN([C@H](C)CO)S2(=O)=O,1.96% (inactive)
16,C[C@@H]1CN([C@@H](C)CO)C(=O)CCCn2nncc2CO[C@H]1CN(C)Cc1cccc(C(F)(F)F)c1,-26.6% (inactive)
17,Cc1noc(C)c1NC(=O)N(C)C[C@H]1Oc2ccc(NC(=O)C3CC3)cc2CC(=O)N([C@@H](C)CO)C[C@H]1C,0.766% (inactive)
18,CO[C@@H]1CN(C)C(=O)c2ccc(NC(=O)Nc3ccccc3)cc2OC[C@H](C)N(C(C)=O)C[C@H]1C,-7.15% (inactive)
19,CC(=O)N1[C@@H]2c3ccc(-c4ccccc4)c(=O)n3C[C@H]1[C@H](CO)[C@H]2C(=O)Nc1ccccc1,17.2% (inactive)
20,Cc1noc(C)c1S(=O)(=O)Nc1ccc2c(c1)C(=O)N([C@H](C)CO)C[C@@H](C)[C@H](CN(C)Cc1ccccc1)OCCCC[C@H](C)O2,-2.05% (inactive)
21,C[C@@H]1CCCCO[C@H](CN(C)Cc2ccncc2)[C@@H](C)CN([C@@H](C)CO)C(=O)c2cc(NC(=O)Nc3ccccc3)ccc2O1,-7.38% (inactive)
22,C[C@@H]1CN([C@@H](C)CO)C(=O)c2cccc(NC(=O)C3CC3)c2O[C@@H]1CN(C)C,-4.49% (inactive)
23,CC(=O)N1[C@H](CO)[C@H](c2ccc(-c3ccccc3)cc2)[C@H]1CNC(=O)C1CC1,-33.3% (inactive)
24,C[C@H](CO)N1C[C@H](C)[C@H](CN(C)C(=O)NC2CCCCC2)OCCCC[C@H](C)Oc2ccc(NS(=O)(=O)c3cn(C)cn3)cc2C1=O,3.14% (inactive)
25,CCNC(=O)CN(c1ccccc1)S(=O)(=O)c1ccc(Cl)cc1,-16.3% (inactive)
26,O=C(C[C@@H]1C=C[C@@H](NC(=O)Nc2cc(F)ccc2F)[C@H](CO)O1)NCCCN1CCOCC1,0.247% (inactive)
27,CN(C[C@H]1N[C@@H](CO)[C@H]1c1ccc(-c2cccc(F)c2)cc1)S(C)(=O)=O,61.6% (inactive)
28,COc1ccc(C2CC(c3cccs3)=NN2C(=O)c2ccc(Br)o2)cc1 (stereo not given),16.8% (inactive)

row,SMILES,"activity change, negative = cytotoxicity"
1,C[C@@H]1CN([C@H](C)CO)C(=O)c2cccc(NC(=O)C3CC3)c2O[C@H]1CN(C)Cc1ccc(C(=O)O)cc1,-12.7% (inactive)
2,C[C@@H]1CN([C@H](C)CO)C(=O)c2cc(NS(=O)(=O)c3cn(C)cn3)ccc2O[C@@H](C)CCCCO[C@H]1CN(C)C,21.8% (inactive)
3,C[C@@H](NC(=O)C[C@@H]1CC[C@H]2[C@@H](COC[C@@H](O)CN2Cc2cc(F)ccc2F)O1)c1ccccc1,-19.7% (inactive)
4,O=C(NC1CCCC1)N1CCCCN2[C@H](CO)[C@H](c3ccc(-c4cncnc4)cc3)[C@@H]2C1,-34.7% (inactive)
5,Cc1ccccc1OCC(=O)NCc1ccccc1,2.49% (inactive)
6,CC(C)NC(=O)N(C)C[C@@H]1OCCCC[C@H](C)Oc2ccc(NC(=O)c3ccccc3)cc2C(=O)N([C@H](C)CO)C[C@H]1C,-12.5% (inactive)
7,CCC(=O)N[C@@H]1C=C[C@H](CC(=O)NCC2CCCCC2)O[C@H]1CO,-35.2% (inactive)
8,Cc1ccc(S(=O)(=O)N[C@H]2CC[C@H](CCNC(=O)C3CCCC3)O[C@@H]2CO)cc1,-7.25% (inactive)
9,C[C@@H]1CCCCO[C@@H](CN(C)C(=O)NC2CCCCC2)[C@H](C)CN([C@@H](C)CO)C(=O)c2cc(NS(=O)(=O)c3cn(C)cn3)ccc2O1,36.8% (inactive)
10,COc1ccccc1C(=O)Nc1ccc2c(c1)OC[C@H](C)N(C(C)=O)C[C@H](C)[C@H](OC)CN(C)C2=O,-41.7% (inactive)
11,C[C@H](CO)N1C[C@H](C)[C@H](CN(C)Cc2cccnc2)Oc2ncc(C#CC3(O)CCCC3)cc2C1=O,-14.5% (inactive)
12,C[C@H]1CN([C@@H](C)CO)C(=O)c2cc(Br)cnc2O[C@@H]1CN(C)Cc1ccccn1,22.1% (inactive)
13,Cc1noc(C)c1NC(=O)Nc1ccc2c(c1)C(=O)N([C@@H](C)CO)C[C@H](C)[C@H](CN(C)S(=O)(=O)c1ccc(Cl)cc1)O2,8.28% (inactive)
14,O=C(Oc1ccc2c3c(c(=O)oc2c1)CCCC3)c1ccco1,-27.5% (inactive)
15,Cc1cc(C)c(NC(=O)C(C)N2CCCCCC2)c(C)c1 (stereo not given),16.2% (inactive)
16,Cc1cccc(C)c1NC(=O)C1(C)CCC(=O)N1CCCn1ccnc1 (stereo not given),-14.5% (inactive)
17,C[C@H]1CN([C@@H](C)CO)C(=O)c2ccccc2-c2ccccc2CO[C@H]1CN(C)S(=O)(=O)c1cccc(C#N)c1,-8.25% (inactive)
18,O=C(CN(c1ccc(F)cc1)S(=O)(=O)c1ccccc1)N1CCOCC1,-20% (inactive)
19,C[C@H]1CN([C@@H](C)CO)C(=O)c2cccc(NS(=O)(=O)c3ccc(Cl)cc3)c2O[C@@H]1CN(C)CC1CC1,18% (inactive)
20,O=C(C[C@H]1C[C@@H]2c3cc(NC(=O)CC4CC4)ccc3O[C@@H]2[C@@H](CO)O1)NCc1cccc(F)c1,35.8% (inactive)
21,C[C@H]1CN([C@@H](C)CO)C(=O)CCCn2cc(nn2)CO[C@@H]1CN(C)Cc1ccc(C(F)(F)F)cc1,-2.59% (inactive)
22,Cc1noc(C)c1NC(=O)N(C)C[C@H]1Oc2ccc(N(C)C)cc2C(=O)N([C@H](C)CO)C[C@@H]1C,-11.8% (inactive)
23,C[C@@H]1CCCCO[C@H](CN(C)C(=O)c2ccncc2)[C@H](C)CN([C@H](C)CO)C(=O)c2cc(NC(=O)CCC(F)(F)F)ccc2O1,-23.2% (inactive)
24,CCC(=O)Nc1ccc2c(c1)C(=O)N(C)C[C@H](OC)[C@@H](C)CN[C@H](C)CO2,29.1% (inactive)
25,C[C@@H]1CN([C@@H](C)CO)C(=O)c2cc(NC(=O)Nc3cccc4ccccc34)ccc2O[C@@H]1CN(C)C(=O)Nc1ccccc1,42.1% (inactive)
26,O=C(NCCc1ccccc1)[C@H]1[C@H](CO)[C@H]2Cn3c(cccc3=O)[C@@H]1N2C(=O)C1CCC1,7.71% (inactive)
27,CC(C)NC(=O)N(C)C[C@@H]1OCCCC[C@H](C)Oc2ccc(NC(=O)Cc3ccccc3)cc2C(=O)N([C@H](C)CO)C[C@H]1C,47.6% (inactive)

# Same assay, conditions: HEK293T viability, ATP luminescence (CellTiter-Glo), 48 h; at 42 µM (top of the series)
row,SMILES,"activity change, negative = cytotoxicity"
1,CCCC(=O)N1CCC1(C)C(=O)Nc1cc(C)ccc1C (stereo not given),-18.3% (inactive)
2,Cc1ccc(NC(=O)C2(C)CCN2C(=O)CC2CC2)cc1C (stereo not given),22.8% (inactive)

# From PubChem BioAssay AID687005 (Broad Institute, 2013)
